In patent publication US20240381760A1, “Compound, Semiconductor Layer Comprising Compound and Organic Electronic Device” (Novaled GmbH, priority 2021, published 2024):

Experiments:
Format in all cases: physicochemical
[1] = Decomposition temperature Tdec by TGA-DSC; conditions: onset of decomposition in TGA, 10 K/min, nitrogen
Method: The decomposition temperature Tdec is measured by loading a sample of 9 to 11 mg into a Mettler Toledo 100 μL aluminum pan without lid under nitrogen in a Mettler Toledo TGA-DSC 1 machine. The following heating program was used: 25° C. isothermal for 3 min; 25° C. to 600° C. with 10 K/min. The decomposition temperature was determined based on the onset of the decomposition in TGA.

[2] = Sublimation temperature Tsubl in sublimation apparatus; conditions: 10−5 mbar
Description: Under nitrogen in a glovebox, 0.5 to 5 g compound are loaded into the evaporation source of a sublimation apparatus. The sublimation apparatus consist of an inner glass tube consisting of bulbs with a diameter of 3 cm which are placed inside a glass tube with a diameter of 3.5 cm. The sublimation apparatus is placed inside a tube oven (Creaphys DSU 05/2.1). The sublimation apparatus is evacuated via a membrane pump (Pfeiffer Vacuum MVP 055-3C) and a turbo pump (Pfeiffer Vacuum THM071 YP). The pressure is measured between the sublimation apparatus and the turbo pump using a pressure gauge (Pfeiffer Vacuum PKR 251). When the pressure has been reduced to 10−5 mbar, the temperature is increased in increments of 10 to 30 K till the compound starts to be deposited in the harvesting zone of the sublimation apparatus. The temperature is further increased in increments of 10 to 30 K till a sublimation rate is achieved where the compound in the source is visibly depleted over 30 min to 1 hour and a substantial amount of compound has accumulated in the harvesting zone. The sublimation temperature, also named Tsubl, is the temperature inside the sublimation apparatus at which the compound is deposited in the harvesting zone at a visible rate and is measured in degree Celsius.

[3] = Rate onset temperature TRO in VTE source with QCM detector; conditions: 15 K/min, less than 10−5 mbar
Method: The rate onset temperature (TRO) is determined by loading 100 mg compound into a VTE source. As VTE source a point source for organic materials may be used as supplied by Kurt J. Lesker Company (www.lesker.com) or CreaPhys GmbH (http://www.creaphys.com). The VTE source is heated at a constant rate of 15 K/min at a pressure of less than 10−5 mbar and the temperature inside the source measured with a thermocouple. Evaporation of the compound is detected with a QCM detector which detects deposition of the compound on the quartz crystal of the detector. The deposition rate on the quartz crystal is measured in Angstrom per second. To determine the rate onset temperature, the deposition rate is plotted against the VTE source temperature. The rate onset is the temperature at which noticeable deposition on the QCM detector occurs. For accurate results, the VTE source is heated and cooled three time and only results from the second and third run are used to determine the rate onset temperature.
To achieve good control over the evaporation rate of an organic compound, the rate onset temperature may be in the range of 200 to 255° C. If the rate onset temperature is below 200° C. the evaporation may be too rapid and therefore difficult to control. If the rate onset temperature is above 255° C. the evaporation rate may be too low which may result in low tact time and decomposition of the organic compound in VTE source may occur due to prolonged exposure to elevated temperatures.
The rate onset temperature is an indirect measure of the volatility of a compound. The higher the rate onset temperature the lower is the volatility of a compound.

[4] = Solubility in benzonitrile

Row | Tdec [1] [°C] | Sublimation temperature Tsubl [2] | Rate onset temperature TRO [3] [°C] | SMILES | Solubility in benzonitrile ([4]; at 20° C.) [mg/mL] | Solubility in benzonitrile ([4]; at 60° C. (footnote 2)) [mg/ml^2)]
1 | >280 | 110-120 °C | <100 | CC(=O)C=C(C)[O-].CC(=O)C=C(C)[O-].[Cu+2] [CC-1, Cu(acac)2] |  | 
2 | >185 | 95-100 °C | <100 | CC(=O)/C=C(\[O-])C(F)(F)F.CC(=O)/C=C(\[O-])C(F)(F)F.[Cu+2] [CC-2, Cu(tfac)2] |  | 
3 | >100 | decomposition | <100 | CC(=O)C=C([O-])C(F)(F)F.CC(=O)C=C([O-])C(F)(F)F.CC(=O)C=C([O-])C(F)(F)F.[Bi+3] [CC-3, Bi(tfac)3] |  | 
4 |  | decomposition | <100 | O=C(C=C([O-])C(F)(F)F)C(F)(F)F.O=C(C=C([O-])C(F)(F)F)C(F)(F)F.O=C(C=C([O-])C(F)(F)F)C(F)(F)F.[Bi+3] [CC-4, Bi(hfac)3] |  | 
5 | >200 | 120 °C | <100 | CC(C)(C)C(=O)C=C([O-])C(F)(F)C(F)(F)C(F)(F)F.CC(C)(C)C(=O)C=C([O-])C(F)(F)C(F)(F)C(F)(F)F.CC(C)(C)C(=O)C=C([O-])C(F)(F)C(F)(F)C(F)(F)F.[Bi+3] [CC-5, Bi(fod)3] |  | 
6 | >260 | 170 °C | 101 | CC(C)(C)/C([O-])=C/C(=O)C(F)(F)C(F)(F)C(F)(F)F.CC(C)(C)/C([O-])=C/C(=O)C(F)(F)C(F)(F)C(F)(F)F.CC(C)(C)/C([O-])=C/C(=O)C(F)(F)C(F)(F)C(F)(F)F.[La+3] [CC-6, La(fod)3] |  | 

Row | SMILES | Tdec [1] [°C] | Sublimation temperature Tsubl [2] | Rate onset temperature TRO [3] [°C] | Solubility in benzonitrile ([4]; at 20° C.) [mg/mL] | Solubility in benzonitrile ([4]; at 60° C. (footnote 2)) [mg/ml^2)]
7 | N#C/C(C(=O)c1cc(C(F)(F)F)cc(C(F)(F)F)c1)=C(/[O][Cu][O]/C(=C(/C#N)C(=O)c1cc(C(F)(F)F)cc(C(F)(F)F)c1)c1cc(C(F)(F)F)cc(C(F)(F)F)c1)c1cc(C(F)(F)F)cc(C(F)(F)F)c1 [MC-1, bis(((Z)-1,3-bis(3,5-bis(trifluoromethyl)phenyl)-2-cyano-3-oxoprop-1-en-1-yl)oxy)copper] | >319 | 261 °C | 204 |  | 
8 | N#C/C(C(=O)C(F)(F)C(F)(F)F)=C(/[O][Cu][O]/C(=C(/C#N)C(=O)C(F)(F)C(F)(F)F)c1ccc(-c2cc(C(F)(F)F)cc(C(F)(F)F)c2)cc1)c1ccc(-c2cc(C(F)(F)F)cc(C(F)(F)F)c2)cc1 [MC-2, bis(((Z)-1-(3′,5′-bis(trifluoromethyl)-[1,1′-biphenyl]-4-yl)-2-cyano-4,4,5,5,5-pentafluoro-3-oxopent-1-en-1-yl)oxy)copper] | >330 | decomposition |  | >10 | 
9 | C/C(C(=O)c1ccnc(C(F)(F)F)c1)=C(/[O][Cu][O]/C(=C(/C)C(=O)c1ccnc(C(F)(F)F)c1)c1ccnc(C(F)(F)F)c1)c1ccnc(C(F)(F)F)c1 [MC-3, bis(((Z)-2-methyl-3-oxo-1,3-bis(2-(trifluoromethyl)pyridin-4-yl)prop-1-en-1-yl)oxy)copper] | >300 | decomposition |  |  | 10
